Where a name gives a salt, the structure may show the parent alone.
Target: T1, SCD (SCD-containing rat microsomes) (Rattus norvegicus, UniProt P07308)
T1 construct: SCD-containing rat microsomes (2 μg protein); from tissue
T1 sequence (P07308 1-358): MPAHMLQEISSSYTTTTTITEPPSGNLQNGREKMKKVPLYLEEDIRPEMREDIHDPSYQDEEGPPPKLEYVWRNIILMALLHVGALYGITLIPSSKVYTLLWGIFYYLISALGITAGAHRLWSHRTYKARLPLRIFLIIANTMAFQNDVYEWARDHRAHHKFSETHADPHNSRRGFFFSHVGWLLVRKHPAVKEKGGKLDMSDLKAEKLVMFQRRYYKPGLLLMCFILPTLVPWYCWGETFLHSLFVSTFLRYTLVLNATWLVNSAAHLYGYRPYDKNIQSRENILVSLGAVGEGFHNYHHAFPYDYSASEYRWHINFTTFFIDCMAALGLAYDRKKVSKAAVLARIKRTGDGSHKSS
Test: in vitro assay for SCD activity based on production of [3H]H2O from [9,10-3H] stearoyl Coenzyme A
Type: biochemical
Details: SCD-containing rat microsomes (2 μg protein), substrate 1 μM, 6 min incubation, 5 min preincubation with compound; read-out: average pIC50 value (converted)
Protocol: The compounds of the present invention may be analysed in vitro for SCD activity using an assay based on the production of [^3H]H2O, which is released during the enzyme-catalyzed generation of the monounsaturated fatty acyl CoA product. The assay is performed in a 96-well filtration plates. The titrated substrate used in the assay is the [9,10-^3H] stearoyl Coenzyme A. After incubation for 6 minutes of SCD-containing rat microsomes (2 μg protein) and substrate (1 μM), the labelled fatty acid acyl-CoA species and microsomes are absorbed with charcoal and separated from [^3H]H2O by centrifugation. The formation of [^3H]H2O is used as a measure of SCD activity. Compounds at concentrations starting at 10 μM to 0.1 nM or vehicle (DMSO) are preincubated for 5 minutes with the microsomes before addition of the substrate. The concentration-responses are fitted with sigmoidal curves to obtain IC50 values.

SMILES	IC50
COc1ccc(Cl)cc1Cn1nc(C(=O)Nc2ccc3c(c2)CCNC3)cc1C [1-{[5-chloro-2-(methyloxy)phenyl]methyl}-5-methyl-N-(1,2,3,4-tetrahydro-6-isoquinolinyl)-1H-pyrazole-3-carboxamide hydrochloride]	3.16 to 10 µM
COc1ccc(OCC(C)C)c(Cn2nc(C(=O)Nc3ccc4c(c3)CCNC4)cc2C)c1 [5-methyl-1-({5-(methyloxy)-2-[(2-methylpropyl)oxy]phenyl}methyl)-N-(1,2,3,4-tetrahydro-6-isoquinolinyl)-1H-pyrazole-3-carboxamide hydrochloride]	> 10 µM
